The target in this assay is T1, HlyA1-IFABP fusion protein (encoded by pIAR_207, SEQ ID NO: 20; IFABP wt accession NP_037200) (Rattus norvegicus, UniProt P02693).
T1 construct: pIAR_207
Description: Fluorescence spectroscopy titration with DAUDA, refolded HlyA1-IFABP. In kind it is binding. Particulars: 100 nM protein, 20 mM KH2PO4, 0.25 mM EDTA, pH 7.3, excitation 350 nm, emission 500 nm. On the procedure: SEC analyses of refolded HlyA1-IFABP. A and C: SDS-PAGE gel of elution fractions from SEC analysis of HlyA1-IFABP refolded with Ca^2+ and elution chromatogram of the SEC. B and D: SDS-PAGE gel of elution fractions from SEC analysis of HlyA1-IFABP refolded with EDTA and elution chromatogram of the SEC. E: Purified HlyA1-IFABP in the presence of either Ca^2+ or EDTA were incubated with Factor Xa and protein samples were analyzed by SDS-PAGE at indicated time points. The arrow indicates the position of IFABP. F and G: Functional studies of HlyA1-IFABP using titration experiments with DAUDA. F: HlyA1-IFABP was refolded in the presence of Ca^2+ and purified by SEC. DAUDA was titrated to HlyA1-IFABP, the fluorescence signal at 500 nm was recorded and plotted against the DAUDA concentration. […]
11-(Dansylamino)undecanoic acid (DAUDA, Cayman Chemical) was prepared as a 1 mM stock solution in 50% isopropanol and 50% buffer (20 mM KH2PO4, 0.25 mM EDTA, pH 7.3) and further diluted to the appropriate concentrations with buffer. […] The fluorescence signal was recorded at a wavelength of 500 nm after excitation at 350 nm using a Fluorolog®-3 (Horiba) (Kim and Frieden (1998) Protein Sci, 7, 1821-1828). […] Fluorescence signals of DAUDA in buffer in the absence of protein was subtracted as background. The corrected and normalized fluorescence signals were plotted against the DAUDA concentration. […]

Molecules are shown by their SMILES. Where two headings read alike, the source gives them in different places.

T1 sequence (P02693 1-132 with tags or gaps): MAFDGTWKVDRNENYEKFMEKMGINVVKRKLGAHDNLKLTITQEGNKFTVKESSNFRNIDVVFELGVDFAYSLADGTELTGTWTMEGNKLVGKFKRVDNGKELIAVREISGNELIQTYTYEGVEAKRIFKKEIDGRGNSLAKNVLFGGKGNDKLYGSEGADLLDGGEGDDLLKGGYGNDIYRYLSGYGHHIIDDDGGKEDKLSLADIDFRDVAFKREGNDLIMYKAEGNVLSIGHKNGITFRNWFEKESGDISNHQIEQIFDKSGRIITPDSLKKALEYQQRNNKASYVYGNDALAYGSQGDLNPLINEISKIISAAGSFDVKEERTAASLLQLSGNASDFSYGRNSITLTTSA

As to `CN(C)c1cccc2c(S(=O)(=O)NCCCCCCCCCCC(=O)O)cccc12` [DAUDA, 11-(((5-(dimethylamino)-1-naphthalenyl)sulfonyl)amino)-undecanoic acid], the Kd is, setting by setting: (refolded in the presence of Ca^2+, purified by SEC, read-out: KD for HlyA1-IFABP refolded in Ca^2+) 141 nM; (refolded/purified in the presence of EDTA, read-out: KD for HlyA1-IFABP refolded in EDTA) 264 nM.
